Values quoted from earlier work as cited in EP0719130B1, “COMPLEX CALCIUM AND FLUORIDE CONTAINING MOUTH RINSES, DENTIFRICES, AND CHEWABLE TABLETS” (AMERICAN DENTAL ASSOCIATION HEALTH FOUNDATION, priority 1993, dated 1995).

Settings: buffer acid or salt

| Compound | pK |
| --- | --- |
| O=S(=O)(O)CCN1CCN(CCO)CC1 [HEPES] | 7.4 |
| OCC(O)CO [glycerol] | 14.15 |
| tyrosine salts | 8.4 |
